Reference: ChEMBL document CHEMBL5365543, “Benzamidine Conjugation Converts Expelled Potential Active Agents into Antifungals against Drug-Resistant Fungi” (J Med Chem, 2023)
≈ marks a conversion by molar mass, not a printed value. Calls of active or inactive are those of the source. No cut-off for these calls is given here.

Tests used:
Candida albicans [1] = test: microbe, parasite or virus in culture; assay type: functional; details: DSY654, time 24 hrs
Description: Antifungal activity against efflux pump-deficient Candida albicans DSY654 assessed as inhibition of fungal growth measured after 24 hrs by CLSI based microtiter plate analysis

Candida albicans [2] = test: Antifungal activity against wild-type Candida albicans SC5314 assessed as inhibition of fungal growth measured after 24 hrs by CLSI based microtiter plate analysis; assay type: functional; details: for MIC80: Candida albicans, SC5314, 24 h, read-out: MIC80
Candida albicans [3] = test: Antifungal activity against clinical isolate Candida albicans YEM13 overexpressing efflux pump MdrL assessed as inhibition of fungal growth measured after 24 hrs by CLSI based microtiter plate analysis; assay type: functional
Candida albicans [4] = test: Antifungal activity against clinical isolate Candida albicans YEM15 overexpressing efflux pump CdrL and Cdr2 assessed as inhibition of fungal growth measured after 24 hrs by CLSI based microtiter plate analysis; assay type: functional
Candida albicans [5] = test: Antifungal activity against clinical isolate Candida albicans SCUPC2R14MPG2A harbouring UPC2 mutation overexpressing […] Erg11 assessed as inhibition of fungal growth measured after 24 hrs by CLSI based microtiter plate analysis; assay type: functional
Candida albicans [6] = test: Antifungal activity against clinical isolate fluconazole-resistant Candida albicans DSY296 harbouring TAC1 mutation overexpressing efflux pump CdrL and Cdr2 assessed as inhibition of fungal growth measured after 24 hrs by CLSI based microtiter plate analysis; assay type: functional
Candida albicans [7] = test: Antifungal activity against clinical isolate fluconazole-resistant Candida albicans G5 harbouring MRR1 mutation overexpressing MdrL assessed as inhibition of fungal growth measured after 24 hrs by CLSI based microtiter plate analysis; assay type: functional
Candida albicans [8] = test: Antifungal activity against clinical isolate fluconazole-resistant Candida albicans Gu5 harbouring TAC1 mutation overexpressing efflux pump CdrL and Cdr2 assessed as inhibition of fungal growth measured after 24 hrs by CLSI based microtiter plate analysis; assay type: functional
Candida albicans [9] = test: Antifungal activity against clinical isolate fluconazole-resistant Candida albicans CA632 assessed as inhibition of fungal growth measured after 24 hrs by CLSI based microtiter plate analysis; assay type: functional
[Candida] auris [10] = Antifungal activity against clinical isolate fluconazole-resistant Candida auris CBS12774 assessed as inhibition of fungal growth measured after 24 hrs by CLSI based microtiter plate analysis; assay type: functional; details: Candidozyma auris
[Candida] auris [11] = Antifungal activity against clinical isolate fluconazole-resistant Candida auris CBS12776 assessed as inhibition of fungal growth measured after 24 hrs by CLSI based microtiter plate analysis; assay type: functional; details: Candidozyma auris
Nakaseomyces glabratus = test: Antifungal activity against clinical isolate fluconazole-resistant Candida glabrata CG2 assessed as inhibition of fungal growth measured after 24 hrs by CLSI based microtiter plate analysis; assay type: functional
Cryptococcus neoformans = test: Antifungal activity against clinical isolate fluconazole-resistant Cryptococcus neoformans H99 assessed as inhibition of fungal growth measured after 24 hrs by CLSI based microtiter plate analysis; assay type: functional
Candida tropicalis = test: Antifungal activity against clinical isolate fluconazole-resistant Candida tropicalis CT10 assessed as inhibition of fungal growth measured after 24 hrs by CLSI based microtiter plate analysis; assay type: functional
[12] = Induction of drug resistance in wild-type Candida albicans SC5314 assessed as change in MIC at 0.5 times of MIC measured after 30 passages by broth microdilution method (reference value: 2 microg/ml); assay type: functional
[13] = Induction of DNA damage in human HBE cells assessed as increase in gammaH2AX level at 8 microg/ml by Western blotting analysis; assay type: toxicity, cell-based; details: dose 8 µg/ml
Candida albicans [14] = test: Antifungal activity against clinical isolate Candida albicans SCMRRIR34MPG2A harbouring MRR1 mutation overexpressing efflux pump MdrL assessed as inhibition of fungal growth measured after 24 hrs by CLSI based microtiter plate analysis; assay type: functional
[15] = Drug accumulation in wild-type Candida albicans SC5314 at 50 microg/ml incubated for 3 hrs by HPLC analysis; assay type: ADME; details: dose 50 µg/ml
[16] = Induction of DNA damage in human HBE cells assessed as increase in gammaH2AX level at 2 to 8 microg/ml by Western blotting analysis; assay type: toxicity, cell-based; details: dose 2-8 µg/ml
[17] = Toxicity in BALB/c mouse infected with clinical isolate fluconazole-resistant Candida albicans Gu5 assessed as animal survival at 6 mg/kg, ip administered on day 1 and day 3 post fungal infection measured after 4 days; assay type: organism-based; details: in vivo, 96 h, time 4 day
Candida albicans [18] = test: Antifungal activity against clinical isolate fluconazole-resistant Candida albicans Gu5 infected in BALB/c mouse assessed as fold reduction in kidney fungal burden at 6 mg/kg, ip administered on day 1 and day 3 post fungal infection measured after 7 days; assay type: functional; details: time 7.0 day

| SMILES | MIC80 (Candida albicans [2]) | MIC80 (Candida albicans [3]) | MIC80 (Candida albicans [4]) | MIC80 (Candida albicans [5]) | MIC80 (Candida albicans [6]) | MIC80 (Candida albicans [7]) | MIC80 (Candida albicans [8]) | MIC80 (Candida albicans [9]) | MIC80 ([Candida] auris [10]) | MIC80 ([Candida] auris [11]) | MIC80 (Nakaseomyces glabratus) | MIC80 (Cryptococcus neoformans) | MIC80 (Candida tropicalis) | other results |
| --- | --- | --- | --- | --- | --- | --- | --- | --- | --- | --- | --- | --- | --- | --- |
| OC(Cn1cncn1)(Cn1cncn1)c1ccc(F)cc1F [FLUCONAZOLE] | 2 µg/mL (≈ 6.53 µM) | 64 µg/mL (≈ 209 µM) | 64 µg/mL (≈ 209 µM) | > 128 µg/mL | > 128 µg/mL | > 128 µg/mL | > 128 µg/mL | > 128 µg/mL | > 128 µg/mL | > 128 µg/mL | 64 µg/mL (≈ 209 µM) | 2 µg/mL (≈ 6.53 µM) | > 128 µg/mL | MIC80 (Candida albicans [1]): 0.5 µg/mL (≈ 1.63 µM); MIC [12]: 128 µg/mL; Activity [13]: Non-Toxic |
| C[C@@]12CC[C@@H]3[C@](CC[C@H]4[C@@]3(C)CCC[C@@]4(C)C(=O)OCCCOc3ccc(C(=N)N)cc3)(CC1=O)C2 | 4 µg/mL (≈ 8.09 µM) | 4 µg/mL (≈ 8.09 µM) | 4 µg/mL (≈ 8.09 µM) | 4 µg/mL (≈ 8.09 µM) | 4 µg/mL (≈ 8.09 µM) | 8 µg/mL (≈ 16.2 µM) | 4 µg/mL (≈ 8.09 µM) | 4 µg/mL (≈ 8.09 µM) | 8 µg/mL (≈ 16.2 µM) | 8 µg/mL (≈ 16.2 µM) | 8 µg/mL (≈ 16.2 µM) | 4 µg/mL (≈ 8.09 µM) | 4 µg/mL (≈ 8.09 µM) | MIC (Candida albicans [2]): inactive; MIC80 (Candida albicans [14]): 8 µg/mL (≈ 16.2 µM); Drug uptake [15]: Active; Activity [16]: Non-Toxic |
| C=C1C(=O)[C@@]2(C)CC[C@@H]3[C@@]1(CC[C@H]1[C@@]3(C)CCC[C@@]1(C)C(=O)OCCC[P+](c1ccccc1)(c1ccccc1)c1ccccc1)C2.[I-] | – | – | – | – | – | – | – | – | – | – | – | – | – | Activity [17]: Toxic; Activity (Candida albicans [18]): inactive |
